Measurements: patent publication US10131653B2, “Heterocyclic compound” (TAKEDA PHARMACEUTICAL COMPANY LIMITED, priority 2015, dated 2018)
Where a name gives a salt, the structure may show the parent alone.

How the values were obtained:
human OX1 receptor = target: T1, human OX1 receptor (Homo sapiens, UniProt O43613); experiment: Measurement of orexin receptor antagonistic activity (calcium fluorescence, FLIPRtetra); type: cell-based; conditions: CHO, 10 μM test compound; CHO cells expressing human OX1 receptor; OX-A 1 nM; read-out: Human Orexin1 receptor inhibition (at 10 μM)
T1 construct: expressed in transfected cells; host or cells: CHO cells
T1 sequence (O43613 1-425): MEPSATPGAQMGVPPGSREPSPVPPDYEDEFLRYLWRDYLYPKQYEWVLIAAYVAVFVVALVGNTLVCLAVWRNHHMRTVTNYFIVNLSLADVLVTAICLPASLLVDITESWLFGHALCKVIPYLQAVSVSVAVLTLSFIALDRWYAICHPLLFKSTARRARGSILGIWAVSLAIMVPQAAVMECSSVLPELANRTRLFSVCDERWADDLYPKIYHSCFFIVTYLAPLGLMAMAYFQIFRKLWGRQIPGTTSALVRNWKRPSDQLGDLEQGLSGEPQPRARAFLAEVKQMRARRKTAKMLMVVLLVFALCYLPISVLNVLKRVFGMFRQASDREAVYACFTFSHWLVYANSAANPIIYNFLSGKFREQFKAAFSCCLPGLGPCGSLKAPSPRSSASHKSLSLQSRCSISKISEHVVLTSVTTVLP
Method in brief: (§1)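 CHO cells expressing human OX1 or OX2 receptor, cultured one day. Compound in HBSS/20 mM HEPES/0.1% BSA added, then orexin-A at 1 nM final (OX1) or 0.3 nM final (OX2); calcium fluorescence by FLIPRtetra every 1 s for 2 min.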

human OX2 receptor = target: T2, human OX2 receptor (Homo sapiens, UniProt O43614); experiment: as above; type: cell-based; conditions: CHO, 10 μM test compound; CHO cells expressing human OX2 receptor; OX-A 0.3 nM; read-out: Human Orexin2 receptor inhibition (at 10 μM)
T2 construct: expressed in transfected cells; host or cells: CHO cells
T2 sequence (O43614 1-444): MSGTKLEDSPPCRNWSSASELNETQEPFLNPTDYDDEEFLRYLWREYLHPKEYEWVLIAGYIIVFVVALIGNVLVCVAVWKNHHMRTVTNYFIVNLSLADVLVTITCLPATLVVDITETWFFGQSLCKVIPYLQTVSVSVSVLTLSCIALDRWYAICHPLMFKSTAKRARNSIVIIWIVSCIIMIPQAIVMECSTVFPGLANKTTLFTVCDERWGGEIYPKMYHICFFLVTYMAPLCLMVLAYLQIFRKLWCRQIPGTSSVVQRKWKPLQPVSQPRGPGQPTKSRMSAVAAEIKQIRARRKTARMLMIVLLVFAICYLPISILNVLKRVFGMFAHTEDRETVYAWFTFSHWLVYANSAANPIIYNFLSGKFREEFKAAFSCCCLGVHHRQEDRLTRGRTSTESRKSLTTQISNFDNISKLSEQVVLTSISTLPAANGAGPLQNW
Method in brief: as §1

Work on `Cc1cc(C)nc(N2CCN(C(=O)c3ccccc3-n3nccn3)[C@H](C)CO2)n1` [Example 147, ((6R)-2-(4,6-dimethylpyrimidin-2-yl)-6-methyl-1,2,5-oxadiazepan-5-yl) (2-(2H-1,2,3-triazol-2-yl)phenyl)methanone] yielded an inhibition at 10 µM (human OX1 receptor) of 60% and an inhibition at 10 µM (human OX2 receptor) of 101%.

With `Cc1cc(N2CCN(C(=O)c3ccccc3-n3nccn3)[C@H](C)CO2)nc(C)n1` [Example 148, ((6R)-2-(2,6-dimethylpyrimidin-4-yl)-6-methyl-1,2,5-oxadiazepan-5-yl) (2-(2H-1,2,3-triazol-2-yl)phenyl)methanone] the inhibition at 10 µM (human OX1 receptor) was 53% and the inhibition at 10 µM (human OX2 receptor) was 100%.

With `C[C@@H]1CON(c2ncc(F)c(O)n2)CCN1C(=O)c1ccccc1-n1nccn1` [Example 149, ((6R)-2-(5-fluoro-4-hydroxypyrimidin-2-yl)-6-methyl-1,2,5-oxadiazepan-5-yl) (2-(2H-1,2,3-triazol-2-yl)phenyl)methanone] the inhibition at 10 µM (human OX1 receptor) was 3% and the inhibition at 10 µM (human OX2 receptor) was -6%.

`C[C@@H]1CON(c2cc(C3CC3)ncn2)CCN1C(=O)c1ccccc1-n1nccn1` [Example 150, ((6R)-2-(6-cyclopropylpyrimidin-4-yl)-6-methyl-1,2,5-oxadiazepan-5-yl) (2-(2H-1,2,3-triazol-2-yl)phenyl)methanone] showed an inhibition at 10 µM (human OX1 receptor) of 58% and an inhibition at 10 µM (human OX2 receptor) of 99%.

`CCc1ccnc(N2CCN(C(=O)c3ccccc3-n3nccn3)[C@H](C)CO2)n1` [Example 151, ((6R)-2-(4-ethylpyrimidin-2-yl)-6-methyl-1,2,5-oxadiazepan-5-yl) (2-(2H-1,2,3-triazol-2-yl)phenyl)methanone] was tested, and the inhibition at 10 µM (human OX1 receptor) was 81% and the inhibition at 10 µM (human OX2 receptor) was 98%.

In the case of `Cc1cc(C#N)nc(N2CCN(C(=O)c3ccccc3-n3nccn3)[C@H](C)CO2)n1` [Example 152, 6-methyl-2-((6R)-6-methyl-5-(2-(2H-1,2,3-triazol-2-yl)benzoyl)-1,2,5-oxadiazepan-2-yl)pyrimidine-4-carbonitrile], the inhibition at 10 µM (human OX1 receptor) is reported as 82% and the inhibition at 10 µM (human OX2 receptor) is reported as 99%.

With `COc1cc(N2CCN(C(=O)c3ccccc3-n3nccn3)[C@H](C)CO2)nc(OC)n1` [Example 153, ((6R)-2-(2,6-dimethoxypyrimidin-4-yl)-6-methyl-1,2,5-oxadiazepan-5-yl)(2-(2H-1,2,3-triazol-2-yl)phenyl)methanone] the inhibition at 10 µM (human OX1 receptor) was 94% and the inhibition at 10 µM (human OX2 receptor) was 99%.

For `Cc1cc(N2CCN(C(=O)c3ccccc3-n3nccn3)[C@H](C)CO2)nc(C(C)(C)C)n1` [Example 154, ((6R)-2-(2-tert-butyl-6-methylpyrimidin-4-yl)-6-methyl-1,2,5-oxadiazepan-5-yl)(2-(2H-1,2,3-triazol-2-yl)phenyl)methanone], the inhibition at 10 µM (human OX1 receptor) was 97% and the inhibition at 10 µM (human OX2 receptor) was 91%.

In the case of `Cc1cc(N2CCN(C(=O)c3ccccc3-n3nccn3)[C@H](C)CO2)nc(C2(C)CC2)n1` [Example 155, ((6R)-6-methyl-2-(6-methyl-2-(1-methylcyclopropyl)pyrimidin-4-yl-1,2,5-oxadiazepan-5-yl)(2-(2H-1,2,3-triazol-2-yl)phenyl)methanone hydrochloride], the inhibition at 10 µM (human OX1 receptor) is reported as 100% and the inhibition at 10 µM (human OX2 receptor) is reported as 103%.

For `Cc1ccc(C#N)c(N2CCN(C(=O)c3ccccc3-n3nccn3)[C@H](C)CO2)n1` [Example 156, 6-methyl-2-((6R)-6-methyl-5-(2-(2H-1,2,3-triazol-2-yl)benzoyl)-1,2,5-oxadiazepan-2-yl)nicotinonitrile], the inhibition at 10 µM (human OX1 receptor) was 18% and the inhibition at 10 µM (human OX2 receptor) was 19%.

For `COc1cccc(N2CCN(C(=O)c3ccccc3-n3nccn3)[C@H](C)CO2)n1` [Example 157, ((6R)-2-(6-methoxypyridin-2-yl)-6-methyl-1,2,5-oxadiazepan-5-yl)(2-(2H-1,2,3-triazol-2-yl)phenyl)methanone], the inhibition at 10 µM (human OX1 receptor) was 93% and the inhibition at 10 µM (human OX2 receptor) was 91%.

In the case of `C[C@@H]1CON(c2cccc(CO)n2)CCN1C(=O)c1ccccc1-n1nccn1` [Example 158, ((6R)-2-(6-(hydroxymethyl)pyridin-2-yl)-6-methyl-1,2,5-oxadiazepan-5-yl)(2-(2H-1,2,3-triazol-2-yl)phenyl)methanone], the inhibition at 10 µM (human OX1 receptor) is reported as 18% and the inhibition at 10 µM (human OX2 receptor) is reported as 99%.

Molecule `COc1ncnc(N2CCN(C(=O)c3ccccc3-n3nccn3)[C@H](C)CO2)n1` [Example 159, ((6R)-2-(4-methoxy-1,3,5-triazin-2-yl)-6-methyl-1,2,5-oxadiazepan-5-yl)(2-(2H-1,2,3-triazol-2-yl)phenyl)methanone] has an inhibition at 10 µM (human OX1 receptor) of 16% and an inhibition at 10 µM (human OX2 receptor) of 89%.

Work on `COc1cc(N2CCN(C(=O)c3ccccc3-n3nccn3)[C@H](C)CO2)nc(C)n1` [Example 160, ((6R)-2-(6-methoxy-2-methylpyrimidin-4-yl)-6-methyl-1,2,5-oxadiazepan-5-yl)(2-(2H-1,2,3-triazol-2-yl)phenyl)methanone] yielded an inhibition at 10 µM (human OX1 receptor) of 82% and an inhibition at 10 µM (human OX2 receptor) of 101%.

Work on `Cc1cc(C)nc(N2CCN(C(=O)c3cc(F)ccc3-n3nccn3)[C@H](C)CO2)n1` [Example 161, ((6R)-2-(4,6-dimethylpyrimidin-2-yl)-6-methyl-1,2,5-oxadiazepan-5-yl)(5-fluoro-2-(2H-1,2,3-triazol-2-yl)phenyl)methanone hydrochloride] yielded an inhibition at 10 µM (human OX1 receptor) of 46% and an inhibition at 10 µM (human OX2 receptor) of 102%.

`Cc1cc(N2CCN(C(=O)c3cc(F)ccc3-n3nccn3)[C@H](C)CO2)nc(C)n1` [Example 162, ((6R)-2-(2,6-dimethylpyrimidin-4-yl)-6-methyl-1,2,5-oxadiazepan-5-yl)(5-fluoro-2-(2H-1,2,3-triazol-2-yl)phenyl)methanone] gave an inhibition at 10 µM (human OX1 receptor) of 42% and an inhibition at 10 µM (human OX2 receptor) of 100%.

`Cc1cc(C#N)nc(N2CCN(C(=O)c3cc(F)ccc3-n3nccn3)[C@H](C)CO2)n1` [Example 163, 2-((6R)-5-(5-fluoro-2-(2H-1,2,3-triazol-2-yl)benzoyl)-6-methyl-1,2,5-oxadiazepan-2-yl)-6-methylpyrimidine-4-carbonitrile] gave an inhibition at 10 µM (human OX1 receptor) of 61% and an inhibition at 10 µM (human OX2 receptor) of 102%.

`Cc1csc(N2CCN(C(=O)c3cc(F)ccc3-n3nccn3)[C@H](C)CO2)n1` [Example 164, (5-fluoro-2-(2H-1,2,3-triazol-2-yl)phenyl)((6R)-6-methyl-2-(4-methyl-1,3-thiazol-2-yl)-1,2,5-oxadiazepan-5-yl)methanone] showed an inhibition at 10 µM (human OX1 receptor) of 8% and an inhibition at 10 µM (human OX2 receptor) of 43%.

`C[C@@H]1CON(c2ncnc3ccn(C)c23)CCN1C(=O)c1cc(F)ccc1-n1nccn1` [Example 165, (5-fluoro-2-(2H-1,2,3-triazol-2-yl)phenyl)((6R)-6-methyl-2-(5-methyl-5H-pyrrolo[3,2-d]pyrimidin-4-yl)-1,2,5-oxadiazepan-5-yl)methanone] showed an inhibition at 10 µM (human OX1 receptor) of 24% and an inhibition at 10 µM (human OX2 receptor) of 24%.

`Cc1nc(N2CCN(C(=O)c3cc(F)ccc3-n3nccn3)[C@H](C)CO2)nc(C)c1F` [Example 166, ((6R)-2-(5-fluoro-4,6-dimethylpyrimidin-2-yl)-6-methyl-1,2,5-oxadiazepan-5yl)(5-fluoro-2-(2H-1,2,3-triazol-2-yl)phenyl)methanone] gave an inhibition at 10 µM (human OX1 receptor) of 81% and an inhibition at 10 µM (human OX2 receptor) of 97%.

With `Cc1nc(N2CCN(C(=O)c3cc(F)ccc3-n3nccn3)[C@H](C)CO2)nc(C)c1Cl` [Example 167, ((6R)-2-(5-chloro-4,6-dimethylpyrimidin-2-yl)-6-methyl-1,2,5-oxadiazepan-5-yl)(5-fluoro-2-(2H-1,2,3-triazol-2-yl)phenyl)methanone] the inhibition at 10 µM (human OX1 receptor) was 100% and the inhibition at 10 µM (human OX2 receptor) was 98%.
